{"source": "patent US11241442B2", "about": "“Methods of use for TRP channel antagonist-based combination cancer therapies” (President and Fellows of Harvard College, priority 2017, dated 2022)", "assay_type_in_all_cases": "cell-based", "key": {"[1]": {"tested_on": "HCC1569 spheroids", "experiment": "[H2O2]i by Hyper-2 in HCC1569 spheroids", "conditions": "AP-18, 300 nM A-967079 or 5 mM NAC", "procedure": "For the measurement of [H2O2]i levels in MCF-10A acini and HCC1569 spheroids, cells were transduced with a lentiviral vector encoding Hyper-2 or Hyper-2 (C199S). The Hyper-2 fluorescence was measured at 37° C. in HEPES-buffered saline (HBS) containing the following (in mM): 150 NaCl, 6 KCl, 1.2 MgSO4, 2 CaCl2, 11.5 glucose, and 25 HEPES (pH adjusted to 7.4 with NaOH). Fluorescence images of the cells were acquired through the Eclipse Ti-E microscope (Nikon) with ORCA-R2 cooled CCD camera (Hamamatsu Photonics) and analyzed with Metafluor image acquisition software (Molecular Devices). The 488:405-nm ratio images were obtained on a pixel-by-pixel basis. 3D images are shown as one section from midstructure. For the measurement of [H2O2]i levels in MCF-10A cells cultured in suspension, cell clumps were dissociated with trypsin and stained with 10 μM peroxy green-1 for 30 min at 37° C. Cells were then subjected to flow cytometric analysis (FACSCalibur; BD Biosciences). ROS levels determined by flow cytometry are reported as mean fluorescence intensity expressed in arbitrary units. Hyper-2 ratio images are representative from two independent experiments and averaged Hyper-2 ratio represents mean±SD from the sum of two independent experiments."}, "[2]": {"tested_on": "HCC1500", "experiment": "Live cell number under carboplatin in HCC1500 cells", "conditions": "10 μM AP-18; carboplatin 72 h; HCC1500, very low TRPA1", "procedure": "For the measurements of live cell number and cell death under treatment with H2O2, diamide, or chemotherapies, cells were cultured on 96-well plates in the presence or absence of these drugs for indicated times and stained with 5 μM bisBenzimide H 33342 trihydrochloride (Hoechst; Sigma) and 5 μM propidium iodide (PI; Sigma) for 1 h at 37° C. Hoechst- and/or PI-positive cells were counted using a laser scanning cytometer, Acumen Cellista (TTPLabTech). Apoptotic cells induced by H2O2 treatment were measured by staining with Annexin V-Alexa Fluor® 488 conjugate (Life Technologies) and PI in Ca^2+-containing solution (10 mM HEPES pH 7.4, 140 mM NaCl; 2.5 mM CaCl2), followed by flow cytometric measurement of fluorescence using a FACSCalibur. Flow cytometry plots are representative of three independent experiments. […] Viable cells were counted using the Countless Automated Cell Counters (Thermo Fisher Scientific). […] Hoechst- and/or PI-positive areas were measured using Acumen Cellista. Apoptotic cells induced by detachment were measured by staining with 5 μM Hoechst and 5 μM of CellEvent™ Caspase-3/7 Green Detection Reagent (Thermo Fisher Scientific) for 1 h at 37° C. without enzymatic dissociation of cell clumps. Hoechst- and/or CellEvent™ Caspase-3/7 Green Detection Reagent-positive areas were measured using Acumen Cellista. […]"}, "[3]": {"tested_on": "HCC1569 cells", "experiment": "Soft agar anchorage-independent growth of HCC1569 cells", "procedure": "Cells were added to the regular MCF-10A or HCC1569 growth media (±AP-18, A-967079, or Trolox) plus 0.4% low-melt agarose (Sigma) and layered onto a bed of growth media plus 0.5% low-melt agarose. Cells were fed every 4 days with growth media (±AP-18, A-967079, or Trolox) plus 0.4% low-melt agarose. At the indicated times, viable colonies were stained with iodonitrotetrazolium chloride (Sigma). Colony number and colony size were determined using ImageJ. Images shown are representative of at least three independent experiments."}}}
{"substance": "AP-18", "values": [{"measurement": "increase in [H2O2]i (Hyper-2) in inner region of spheroids", "setting": "[1]", "result": "unaffected"}, {"measurement": "sensitization to carboplatin", "setting": "[2]", "result": "minimal to no effect"}, {"measurement": "anchorage-independent growth (number and average size of colonies)", "setting": "[3]", "result": "impaired"}]}
